Consider 33 compounds from patent US8173638B2 (Boehringer Ingelheim International GmbH, priority 2006, dated 2012).

This assay concerns the target T1, human CB2R (Homo sapiens, UniProt P34972).
T1 construct: host or cells: CHO cells
In words: CB2R mediated modulation of cAMP synthesis. The format is cell-based. The note with it: for Emax: 0.5 h, read-out: Agonist Efficacy (%). The essentials: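 CHO cells expressing human CB2R treated with compound 30 min at 37 °C in buffer with 1 mM IBMX, 0.25% BSA and 10 uM forskolin. cAMP measured after lysis by DiscoverX-XS kit.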

[1] abbreviates: CHO cells expressing human CB2R, cAMP inhibited by 1 uM CP55940 defined as 100%.

Molecules are shown by their SMILES. Read-outs that look alike come from different tables or passages of the source.

T1 sequence (P34972 whole entry): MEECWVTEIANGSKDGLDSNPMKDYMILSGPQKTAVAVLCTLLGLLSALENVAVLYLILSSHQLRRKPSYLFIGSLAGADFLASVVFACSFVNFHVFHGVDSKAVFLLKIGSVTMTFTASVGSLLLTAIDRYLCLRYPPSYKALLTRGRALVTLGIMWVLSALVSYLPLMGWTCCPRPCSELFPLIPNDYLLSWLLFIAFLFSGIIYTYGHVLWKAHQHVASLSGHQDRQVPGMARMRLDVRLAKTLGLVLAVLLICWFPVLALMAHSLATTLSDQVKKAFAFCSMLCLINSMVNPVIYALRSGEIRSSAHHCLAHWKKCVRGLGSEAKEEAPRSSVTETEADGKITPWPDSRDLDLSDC

`CC(C)c1ccc(NC(=O)N2CCCN(C(=O)C(C)(C)C)CC2)cc1` [4-pivaloyl-[1,4]diazepane-1-carboxylic acid (4-isopropyl-phenyl)-amide]: the agonistic activity entry (found through the use of the described assays (CB2 agonists), qualitative statement) was “agonistic activity”.
The EC50 is the midpoint of the concentration-response curve. Take `CC(C)c1ccc(NC(=O)N2CCCN(C(=O)C3CCCCC3)CC2)cc1` [Compound 34, 4-Cyclohexanecarbonyl-[1,4]diazepane-1-carboxylic acid (4-isopropyl-phenyl)-amide]: the Emax under setting [1] came out at 102%. Further, the EC50 (read-out: hCB2 cAMP EC50) was 23 nM.
On the same counts, the results for `CC(C)c1ccc(NC(=O)N2CCCN(C(=O)CC3CCCCC3)CC2)cc1` [Compound 36, 4-(2-Cyclohexyl-acetyl)-[1,4]diazepane-1-carboxylic acid (4-isopropyl-phenyl)-amide] are 95% and 29 nM.
For the compound `CC(C)c1ccc(NC(=O)N2CCCN(C(=O)c3ccc(Cl)cc3)CC2)cc1` [Compound 41, 4-(4-Chloro-benzoyl)-[1,4]diazepane-1-carboxylic acid (4-isopropyl-phenyl)-amide], the Emax under setting [1] came to 95%. Where the note is “read-out: hCB2 cAMP EC50”, the EC50 is 43 nM.
The like results for `O=C(CC1CCCC1)N1CCCN(C(=O)Nc2ccc3ccccc3c2)CC1` [Compound 48, 4-(2-Cyclopentyl-acetyl)-[1,4]diazepane-1-carboxylic acid (2-naphthyl)-amide] were, in that order, 100% and 53 nM.
The like results for `CCCCCc1ccc(NC(=O)N2CCCN(C(=O)CC3CCCC3)CC2)cc1` [Compound 49, 4-(2-Cyclopentyl-acetyl)-[1,4]diazepane-1-carboxylic acid (4-n-pentyl-phenyl)-amide] were, in that order, 73% and 48 nM.
On to `CCC(C)c1ccc(NC(=O)N2CCCN(C(=O)CC3CCCC3)CC2)cc1` (centres unmarked) [Compound 52, 4-(2-Cyclopentyl-acetyl)-[1,4]diazepane-1-carboxylic acid (4-sec-butyl-phenyl)-amide], for which it took 7.1 nM to reach a half-maximal effect (EC50). Moreover, the Emax (CHO) is 98%.
In the case of `CC(C)c1ccc(NC(=O)N2CCCN(C(=O)CCC3CC3)CC2)cc1` [Compound 55, 4-(3-Cyclopropyl-propionyl)-[1,4]diazepane-1-carboxylic acid (4-isopropyl-phenyl)-amide], the Emax under setting [1] was 105%. In addition, the EC50 (read-out: hCB2 cAMP EC50) came out at 89 nM.
Regarding `CC(C)c1ccc(NC(=O)N2CCCN(C(=O)CCC3CCCCC3)CC2)cc1` [Compound 56, 4-(3-Cyclohexyl-propionyl)-[1,4]diazepane-1-carboxylic acid (4-isopropyl-phenyl)-amide], the Emax under setting [1] was determined as 103%. Moreover, the EC50 (read-out: hCB2 cAMP EC50) was 22 nM.
`CC(C)c1ccc(NC(=O)N2CCCN(C(=O)CC(C)(C)C)CC2)cc1` [Compound 60, 4-(3,3-Dimethyl-butyryl)-[1,4]diazepane-1-carboxylic acid (4-isopropyl-phenyl)-amide] yielded an EC50 of 78 nM. The Emax (CHO) came out at 71%.
Consider `O=C(Nc1ccc2ccccc2c1)N1CCCN(C(=O)C2CCCCC2)CC1` [Compound 68, 4-Cyclohexanecarbonyl-[1,4]diazepane-1-carboxylic acid naphthalen-2-ylamide], for which, under setting [1], the Emax stood at 99%. In addition, for the setting “read-out: hCB2 cAMP EC50”, the EC50 was 26 nM.
The like results for `O=C(Nc1ccc(C(F)(F)F)cc1)N1CCCN(C(=O)C2CCC(F)(F)CC2)CC1` [Compound 78, 4-(4,4-Difluoro-cyclohexanecarbonyl)-[1,4]diazepane-1-carboxylic acid (4-trifluoromethyl-phenyl)-amide] were, in that order, 87% and 71 nM.
Regarding `O=C(Nc1ccc2ccccc2c1)N1CCCN(C(=O)c2ccc(Cl)cc2)CC1` [Compound 79, 4-(4-Chloro-benzoyl)-[1,4]diazepane-1-carboxylic acid naphthalen-2-ylamide], the Emax under setting [1] is 100%. Moreover, the EC50 (read-out: hCB2 cAMP EC50) was 46 nM.
On the same counts, the results for `O=C(Nc1ccc(SC(F)(F)F)cc1)N1CCCN(C(=O)C2CCCCC2)CC1` [Compound 80, 4-Cyclohexanecarbonyl-[1,4]diazepane-1-carboxylic acid (4-trifluoromethylsulfanyl-phenyl)-amide] are 99% and 12 nM.
The like results for `O=C(Nc1ccc(SC(F)(F)F)cc1)N1CCCN(C(=O)C2CCOCC2)CC1` [Compound 81, 4-(Tetrahydro-pyran-4-carbonyl)-[1,4]diazepane-1-carboxylic acid (4-trifluoromethylsulfanyl-phenyl)-amide] were, in that order, 96% and 120 nM.
On the same counts, the results for `O=C(CC1CCCC1)N1CCCN(C(=O)Nc2ccc(SC(F)(F)F)cc2)CC1` [Compound 82, 4-(2-cyclopentyl-acetyl)-[1,4]diazepane-1-carboxylic acid (4-trifluoromethylsulfanyl-phenyl)-amide] are 92% and 36 nM.
Consider `O=C(Nc1ccc2ccccc2c1)N1CCCN(C(=O)c2ccc(Cl)c(Cl)c2)CC1` [Compound 86, 4-(3,4-Dichloro-benzoyl)-[1,4]diazepane-1-carboxylic acid naphthalen-2-ylamide], for which the Emax under setting [1] stood at 92%. For the same compound, the EC50 (read-out: hCB2 cAMP EC50) was found to be 52 nM.
In the case of `N#Cc1ccc(C(=O)N2CCCN(C(=O)Nc3ccc4ccccc4c3)CC2)cc1` [Compound 88, 4-(4-Cyano-benzoyl)-[1,4]diazepane-1-carboxylic acid naphthalen-2-ylamide], the Emax under setting [1] was found to be 97%. In addition, the EC50 (read-out: hCB2 cAMP EC50) turned out to be 36 nM.
With `O=C(Nc1ccc2ccccc2c1)N1CCCN(C(=O)c2cc(Cl)ccc2Cl)CC1` [Compound 90, 4-(2,5-Dichloro-benzoyl)-[1,4]diazepane-1-carboxylic acid naphthalen-2-ylamide], under setting [1], the Emax turned out to be 91%. Moreover, the EC50 (read-out: hCB2 cAMP EC50) stood at 20 nM.
Take `O=C(Nc1ccc2ccccc2c1)N1CCCN(C(=O)c2ccc(C(F)(F)F)cc2)CC1` [Compound 92, 4-(4-Trifluoromethyl-benzoyl)-[1,4]diazepane-1-carboxylic acid naphthalen-2-ylamide]: the Emax under setting [1] worked out at 96%. Besides, the EC50 (read-out: hCB2 cAMP EC50) came to 14 nM.
Take `CC(C)CCC(=O)N1CCCN(C(=O)Nc2ccc3ccccc3c2)CC1` [Compound 94, 4-(4-Methyl-pentanoyl)-[1,4]diazepane-1-carboxylic acid naphthalen-2-ylamide]: under setting [1], the Emax is 98%. The concentration giving a half-maximal response (EC50) (read-out: hCB2 cAMP EC50) came out at 89 nM.
The like results for `O=C(Nc1ccc2ccccc2c1)N1CCCN(C(=O)c2ccc(Cl)cc2Cl)CC1` [Compound 99, 4-(2,4-Dichloro-benzoyl)-[1,4]diazepane-1-carboxylic acid naphthalen-2-ylamide] were, in that order, 102% and 100 nM.
On the same counts, the results for `CC(C)(C)c1ccc(NC(=O)N2CCCN(C(=O)CC3CCCCC3)CC2)cc1` [Compound 107, 4-(2-Cyclohexyl-acetyl)-[1,4]diazepane-1-carboxylic acid (4-tert-butyl-phenyl)-amide] are 94% and 100 nM.
On the same counts, the results for `CC(C)(C)c1ccc(NC(=O)N2CCCN(C(=O)CCC3CCCCC3)CC2)cc1` [Compound 108, 4-(3-Cyclohexyl-propionyl)-[1,4]diazepane-1-carboxylic acid (4-tert-butyl-phenyl)-amide] are 96% and 21 nM.
Regarding `CC(C)(C)c1ccc(NC(=O)N2CCCN(C(=O)c3ccc(Cl)c(Cl)c3)CC2)cc1` [Compound 110, 4-(3,4-Dichloro-benzoyl)-[1,4]diazepane-1-carboxylic acid (4-tert-butyl-phenyl)-amide], the Emax under setting [1] is 97%. Further, for the setting “read-out: hCB2 cAMP EC50”, the EC50 is 64 nM.
Take `CC(C)(C)c1ccc(NC(=O)N2CCCN(C(=O)c3ccc(C#N)cc3)CC2)cc1` [Compound 112, 4-(4-Cyano-benzoyl)-[1,4]diazepane-1-carboxylic acid (4-tert-butyl-phenyl)-amide]: the Emax under setting [1] turned out to be 109%. For the same compound, the EC50 (read-out: hCB2 cAMP EC50) stood at 19 nM.
On the same counts, the results for `CC(C)(C)c1ccc(NC(=O)N2CCCN(C(=O)CN3CCSCC3)CC2)cc1` [Compound 121, 4-(2-Thiomorpholin-4-yl-acetyl)-[1,4]diazepane-1-carboxylic acid (4-tert-butyl-phenyl)-amide] are 103% and 36 nM.
On the same counts, the results for `Cc1ccc(C(=O)N2CCCN(C(=O)Nc3ccc(C(C)(C)C)cc3)CC2)cc1` [Compound 122, 4-(4-Methyl-benzoyl)-[1,4]diazepane-1-carboxylic acid (4-tert-butyl-phenyl)-amide] are 101% and 100 nM.
The like results for `O=C(Nc1ccc(C(F)(F)F)cc1)N1CCCN(C(=O)c2ccc(C(F)(F)F)cc2)CC1` [Compound 127, 4-(4-Trifluoromethyl-benzoyl)-[1,4]diazepane-1-carboxylic acid (4-trifluomethyl-phenyl)-amide] were, in that order, 100% and 75 nM.
For the compound `O=C(Nc1ccc(C(F)(F)F)cc1)N1CCCN(C(=O)C2CCCCC2)CC1` [Compound 128, 4-Cyclohexanecarbonyl-[1,4]diazepane-1-carboxylic acid (4-trifluoromethyl-phenyl)-amide], the Emax under setting [1] is 107%. Also, the EC50 (read-out: hCB2 cAMP EC50) was 71 nM.
On the same counts, the results for `O=C(CC1CCCC1)N1CCCN(C(=O)Nc2ccc(Br)c(C(F)(F)F)c2)CC1` [Compound 132, 4-(2-Cyclopentyl-acetyl)-[1,4]diazepane-1-carboxylic acid (4-bromo-3-trifluoromethyl-phenyl)-amide] are 104% and 13 nM.
On the same counts, the results for `CCC(C)c1ccc(NC(=O)N2CCCN(C(=O)C3CCOCC3)CC2)cc1` (centres unmarked) [Compound 133, 4-(Tetrahydro-pyran-4-carbonyl)-[1,4]diazepane-1-carboxylic acid (4-sec-butyl-phenyl)-amide] are 97% and 7.8 nM.
Regarding `CC(C)(C)c1cc(NC(=O)N2CCCN(C(=O)CC3CCCC3)CC2)no1` [Compound 140, 4-(2-Cyclopentyl-acetyl)-[1,4]diazepane-1-carboxylic acid (5-tert-butyl-isoxazol-3-yl)-amide], a half-maximal effect (EC50) was put at 12 nM. The Emax (CHO) amounted to 103%.
